# In the supplement of paper PMC6045584:
# ± gives the standard deviation of the averaged measurements.
# Columns and labels:
# [1] = compound: CCCS(=O)(=O)Nc1ccc(F)c(C(=O)c2c[nH]c3ncc(Cl)cc23)c1F [PLX-4720]; experiment: surviving fraction relative to DMSO-only wells; higher = less growth inhibition; conditions: exposure time: 5 days
# Summary of the method: (§1)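 After seeding at 250–500 cells per well in 384-well plates and a 24-hour wait, log-phase tumour cell lines were exposed without interruption for five days to inhibitors at 0.5, 1, 5, 10, 50, 100, 500 and 1000 nM. CellTiter-Glo luminescence was recorded after 10 minutes at room temperature. Viability is reported as surviving fraction, the luminescence normalised to the median of DMSO-only wells.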
# [2] = compound: COc1cc(CCc2cc(NC(=O)c3ccc(N4CC(C)NC(C)C4)cc3)n[nH]2)cc(OC)c1 [AZD4547]; experiment: as above; conditions: exposure time: 5 days
# Summary of the method: as §1
Test System,surviving fraction ([1]; 0.5 nM),surviving fraction ([1]; 1 nM),surviving fraction ([1]; 5 nM),surviving fraction ([1]; 10 nM),surviving fraction ([1]; 50 nM),surviving fraction ([1]; 100 nM),surviving fraction ([1]; 500 nM),surviving fraction ([1]; 1000 nM),surviving fraction ([2]; 0.5 nM),surviving fraction ([2]; 1 nM),surviving fraction ([2]; 5 nM),surviving fraction ([2]; 10 nM),surviving fraction ([2]; 50 nM),surviving fraction ([2]; 100 nM),surviving fraction ([2]; 500 nM),surviving fraction ([2]; 1000 nM)
A549 LUNG,0.904 ± 0.027,0.928 ± 0.017,0.922 ± 0.017,0.922 ± 0.03,0.942 ± 0.012,0.98 ± 0.018,0.975 ± 0.027,1.02 ± 0.047,0.984 ± 0.02,1.03 ± 0.064,1.01 ± 0.039,1.02 ± 0.069,0.9867 ± 0.0075,1.03 ± 0.066,0.983 ± 0.026,1.031 ± 0.007
VP229 BREAST,0.861 ± 0.03,0.838 ± 0.056,0.861 ± 0.055,0.887 ± 0.019,1.03 ± 0.065,1.1 ± 0.068,1.248 ± 0.0097,1.25 ± 0.13,1.32 ± 0.12,1.38 ± 0.049,1.42 ± 0.099,1.38 ± 0.065,1.25 ± 0.1,1.42 ± 0.092,1.4 ± 0.25,1.32 ± 0.033
MDAMB436 BREAST,0.754 ± 0.019,0.831 ± 0.092,0.837 ± 0.052,0.821 ± 0.024,0.9 ± 0.096,0.943 ± 0.066,0.901 ± 0.062,0.909 ± 0.1,1.05 ± 0.053,0.9823 ± 0.0041,1.03 ± 0.12,0.942 ± 0.08,0.978 ± 0.059,0.958 ± 0.062,1.07 ± 0.023,1.02 ± 0.024
SG43 HEADNECK,1.26 ± 0.34,1.19 ± 0.013,1.09 ± 0.053,1 ± 0.1,1.13 ± 0.13,1.27 ± 0.15,1.65 ± 0.22,1.7 ± 0.078,1.02 ± 0.37,0.896 ± 0.17,0.714 ± 0.13,0.8 ± 0.13,0.759 ± 0.099,0.696 ± 0.14,0.94 ± 0.11,0.731 ± 0.074
RDES SOFT TISSUE,0.795 ± 0.13,0.683 ± 0.12,0.7 ± 0.079,0.747 ± 0.058,1.04 ± 0.11,0.989 ± 0.25,0.994 ± 0.054,0.793 ± 0.13,1.28 ± 0.16,1.29 ± 0.047,1.12 ± 0.084,1.1 ± 0.12,0.835 ± 0.13,0.813 ± 0.14,0.961 ± 0.16,1.04 ± 0.12
SKBR3 BREAST,0.838 ± 0.027,0.81 ± 0.098,0.819 ± 0.14,0.813 ± 0.15,1.05 ± 0.12,1.01 ± 0.15,0.986 ± 0.17,0.892 ± 0.14,1.07 ± 0.14,1.2 ± 0.05,1.04 ± 0.079,1.09 ± 0.13,1.15 ± 0.13,1.26 ± 0.13,1.16 ± 0.18,1.11 ± 0.13
OS25HAL BONE,0.902 ± 0.013,0.925 ± 0.016,0.934 ± 0.0061,0.942 ± 0.02,0.976 ± 0.01,0.98 ± 0.015,0.966 ± 0.0046,0.974 ± 0.014,0.99 ± 0.018,1.02 ± 0.02,1.037 ± 0.0085,1.04 ± 0.012,1.02 ± 0.016,1.036 ± 0.0095,0.948 ± 0.04,0.992 ± 0.018
S68 BREAST,0.773 ± 0.17,0.685 ± 0.22,0.775 ± 0.18,0.778 ± 0.19,1 ± 0.31,1.06 ± 0.12,1.09 ± 0.16,0.962 ± 0.15,0.981 ± 0.08,1.04 ± 0.052,1.02 ± 0.25,1.1 ± 0.18,0.957 ± 0.23,1.53 ± 0.1,1.05 ± 0.035,0.684 ± 0.062
CME SYNOVIAL,0.101 ± 0.0087,0.904 ± 0.082,0.732 ± 0.072,0.945 ± 0.23,0.217 ± 0.021,1.24 ± 0.14,1.02 ± 0.14,1.12 ± 0.044,1.21 ± 0.046,1.09 ± 0.063,1.29 ± 0.11,1.14 ± 0.14,1 ± 0.075,0.935 ± 0.097,0.761 ± 0.051,0.724 ± 0.035
CHLA90 AUTONOMIC GANGLIA,0.333 ± 0.039,0.922 ± 0.041,0.753 ± 0.041,0.929 ± 0.044,0.371 ± 0.013,0.94 ± 0.018,0.98 ± 0.049,1.07 ± 0.061,0.994 ± 0.075,1.04 ± 0.099,1.07 ± 0.07,1.01 ± 0.014,0.883 ± 0.051,0.692 ± 0.039,0.568 ± 0.029,0.473 ± 0.041
ASKA SYNOVIAL,0.402 ± 0.04,0.905 ± 0.07,0.923 ± 0.041,1 ± 0.096,0.635 ± 0.032,1.21 ± 0.033,1.02 ± 0.077,1.08 ± 0.045,1.15 ± 0.06,1.11 ± 0.015,1.2 ± 0.058,1.12 ± 0.021,1.16 ± 0.036,1.08 ± 0.084,0.877 ± 0.059,0.658 ± 0.041
